Values joined by “and” are separate entries in the source; they are usually repeats but may differ in a detail not shown here. Equal entries are not always repeated. Active and inactive are the calls of the source. No rule for the calls is given here.
Target: Perilipin-5 (Homo sapiens) + 1-acylglycerol-3-phosphate O-acyltransferase ABHD5 (Homo sapiens) (UniProt Q00G26+Q8WTS1)
Experiment: blockers of ABHD5 binding to perilipin-5 – cell lysate, luminescence, proteins expressed in HEK293T, dose response (AID 651733);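 also: split Gaussia princeps luciferase complementation between ABHD5 and MLDP fusion proteins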
Settings: ABHD5-PLIN5 interaction

Sequence of Perilipin-5 (Homo sapiens) + 1-acylglycerol-3-phosphate O-acyltransferase ABHD5 (Homo sapiens) (Q00G26 whole entry, looked up, the tested form may be a part): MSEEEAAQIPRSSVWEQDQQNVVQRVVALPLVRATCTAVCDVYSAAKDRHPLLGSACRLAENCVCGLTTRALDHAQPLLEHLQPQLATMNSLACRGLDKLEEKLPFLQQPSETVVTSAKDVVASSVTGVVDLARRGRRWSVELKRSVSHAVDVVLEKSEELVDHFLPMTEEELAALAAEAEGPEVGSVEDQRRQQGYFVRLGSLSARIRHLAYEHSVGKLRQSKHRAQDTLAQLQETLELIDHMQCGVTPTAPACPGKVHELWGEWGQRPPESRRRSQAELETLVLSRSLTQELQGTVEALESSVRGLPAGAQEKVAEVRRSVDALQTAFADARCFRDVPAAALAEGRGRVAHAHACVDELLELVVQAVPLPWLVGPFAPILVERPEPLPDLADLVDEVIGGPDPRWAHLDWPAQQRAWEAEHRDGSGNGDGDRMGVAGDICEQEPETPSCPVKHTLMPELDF
Sequence of Perilipin-5 (Homo sapiens) + 1-acylglycerol-3-phosphate O-acyltransferase ABHD5 (Homo sapiens) (Q8WTS1 whole entry, looked up, the tested form may be a part): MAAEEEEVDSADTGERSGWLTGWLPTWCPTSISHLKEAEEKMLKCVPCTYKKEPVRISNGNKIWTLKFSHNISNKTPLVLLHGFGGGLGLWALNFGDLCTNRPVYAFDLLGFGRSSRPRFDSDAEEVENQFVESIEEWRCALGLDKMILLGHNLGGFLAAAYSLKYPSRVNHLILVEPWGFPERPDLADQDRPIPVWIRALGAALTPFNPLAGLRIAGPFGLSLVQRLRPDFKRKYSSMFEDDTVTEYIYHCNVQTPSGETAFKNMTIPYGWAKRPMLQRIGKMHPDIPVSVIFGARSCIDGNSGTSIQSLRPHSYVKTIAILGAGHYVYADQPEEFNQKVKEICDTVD

Structure (SMILES)	IC50
O=C(NCc1ccccc1)C(c1ccc(-c2ccccc2)cc1)n1c(=O)c(-c2ccco2)nc2ccccc21 (stereo not drawn)	5.97 µM
Cc1ccc(NC(=O)CSc2nnc(-c3ccco3)c(-c3ccco3)n2)cc1	4.82 µM
CC(=O)OCC1=C(C(=O)O)N2C(=O)C(NC(=O)CCn3nc(C(F)(F)F)c(Br)c3C3CC3)C2SC1 (stereo not drawn)	inactive
FC(F)(F)c1cccc(NC(=S)N(CCCN2CCCC2)Cc2cccn2Cc2ccc(Cl)cc2)c1	> 13.3 µM (inactive)
CCN(CCCc1ccccc1)CCCc1ccccc1	2.62 µM
CCCCCNC(=O)C(c1cc2ccccc2o1)n1c(=O)c(-c2ccco2)nc2ccccc21 (stereo not drawn)	3.08 µM
CC(O)CC(=O)OC[C@]12CC[C@H]3[C@@](C)(CC[C@H]4C(C)(C)CCC[C@]34C)[C@@H]1CC(C1=CC(=O)OC1O)O2 (stereo partly drawn)	1.37 µM
CCOc1cc(N)c(Cl)cc1C(=O)NCC1CN(Cc2ccc(F)cc2)CCO1 (stereo not drawn)	1.93 µM
N#Cc1ccc(C(C(=O)Nc2ccc3c(c2)OCCO3)n2c(=O)c(-c3ccco3)nc3ccccc32)cc1 (stereo not drawn)	inactive
CN1CCC[C@@H]1CCO[C@](C)(c1ccccc1)c1ccc(Cl)cc1	6.93 µM
C=CC(=O)N1c2ccccc2Sc2ccc(NC(=O)OCC)cc21	4.84 µM
Cc1cccc(C)c1NC(=O)C(c1ccccc1)n1c(=O)c(-c2ccco2)nc2ccccc21 (stereo not drawn)	7.69 µM
CCc1nnc(NC(=O)c2nc(S(=O)(=O)Cc3cccc(C)c3)ncc2Cl)s1	4.49 µM
Cc1cc(C)c(C(CC(=O)c2cccs2)C(C#N)C#N)c(C)c1 (stereo not drawn)	8.57 µM
CCc1nnc(NC(=O)c2nc(S(=O)(=O)Cc3ccccc3)ncc2Cl)s1	5.18 µM
CN(C)CCN(Cc1ccco1)c1ccccn1	4.4 µM
CN(C)CCOC1(Cc2ccc(F)cc2)CCC(C(C)(C)C)CC1 (stereo not drawn)	6.65 µM
CCOC(=O)C1CCCN(C(=O)c2cc(Nc3ccc(OC)cc3)nc3ccccc23)C1 (stereo not drawn)	inactive
O=C1NC(=O)N(c2ccccc2F)C(=O)/C1=C/c1ccc(Oc2ccc([N+](=O)[O-])cn2)cc1	7.53 µM
COc1ccc(C(C(=O)Nc2ccc3c(c2)OCCO3)n2c(=O)c(-c3ccco3)nc3ccccc32)cc1 (stereo not drawn)	8.54 µM
CC1=CC(C)(C)Nc2ccc(OC(=O)CN3C(=O)c4cccc5cccc(c45)C3=O)cc21	inactive
CCC1(C)N=C(c2ccc3c(c2)OCO3)CC(c2ccccc2O)N1 (stereo not drawn)	1.93 µM
CCSc1nnc(NC(=O)c2nc(S(=O)(=O)Cc3ccc(F)cc3)ncc2Cl)s1	3.78 µM
Cc1cccc(C)c1NC(=O)C(c1ccc(C#N)cc1)n1c(=O)c(-c2ccco2)nc2ccccc21 (stereo not drawn)	3.4 µM
COc1ccc(/C=C/C(=O)c2cc(F)ccc2OC(=O)c2ccc(OC)c(OC)c2)cc1OC	3.22 µM

Structure (SMILES)	IC50
Cc1cccc(C)c1NC(=O)C(c1ccncc1)n1c(=O)c(-c2ccco2)nc2ccccc21 (stereo not drawn)	inactive
O=C(Cn1c(=O)n(Cc2ccco2)c(=O)c2c3c(sc21)CCCC3)Nc1ccccc1	inactive
CC(C)(C)NC(=O)C(c1ccncc1)n1c(=O)c(-c2ccco2)nc2ccccc21 (stereo not drawn)	4.21 µM
COc1ccc(NC(=O)C(c2ccc(OC)cc2)n2c(=O)c(-c3ccco3)nc3ccccc32)cc1 (stereo not drawn)	inactive
CCC(C(=O)OCCN(CC)CC)c1ccccc1 (stereo not drawn)	2.67 µM
COc1ccc(C)c2sc(N(CCN(C)C)C(=O)/C=C/c3cccs3)nc12	> 13.3 µM (inactive)
O=C1C(=O)c2c(C(=O)c3ccccc3)coc2-c2ccccc21	5.97 µM
COc1ccc(OCc2cn(CC(=O)c3ccc(O)cc3)nn2)cc1	5.67 µM
Cc1nc(-c2ccccc2)sc1C(=O)/C=C/c1ccccc1	2.35 µM
O=c1c(-c2ccco2)nc2ccccc2n1C(CCc1ccccc1)c1nc2ccccc2[nH]1 (stereo not drawn)	5.14 µM
COc1ccc(NC(=O)C(c2ccccc2)n2c(=O)c(-c3ccco3)nc3ccccc32)cc1 (stereo not drawn)	inactive
CN1[C@@H]2CC[C@H]1CC(OC1c3ccccc3CCc3ccccc31)C2 (stereo partly drawn)	2.38 µM
CC1CCN(S(=O)(=O)c2ccc(NC(=O)Cc3ccccc3)cc2)CC1	5.73 µM
CC(=O)Nc1ccc(OCc2cn(CC(=O)c3ccc(O)cc3)nn2)cc1	3.76 µM
Cc1ccc(O)c(C(=O)/C=C/c2ccc3c(c2)OCCCO3)c1	4.93 µM
CS(=O)(=O)c1ccc(C(=O)NCCN2C(=O)S/C(=C\c3cccnc3)C2=O)cc1[N+](=O)[O-]	4.62 µM
Cc1cccc(C)c1OCc1cn(CC(=O)c2ccc(O)cc2)nn1	5.07 µM
Cc1ccc(CC2(OCCN(C)C)CCC(C(C)(C)C)CC2)cc1 (stereo not drawn)	4.85 µM
COc1ccc(C(C(=O)NC2CCCCC2)n2c(=O)c(-c3ccco3)nc3ccccc32)cc1 (stereo not drawn)	3.87 µM
CC1=CC(C)(C)Nc2ccc(OC(=O)C(C)N3C(=O)c4ccccc4C3=O)cc21 (stereo not drawn)	3.65 µM
COCCN(CCOC)c1nc(N)c2c(N)nc3c(c2c1C#N)CC(=O)N3Cc1ccc(Cl)cc1	inactive
COC/C=C/C1=CC2=CC(=O)C(C)(OC(=O)C3CCCC3)C(=O)C2=CO1 (stereo not drawn)	3.88 µM
CCCCCCC=C1CCC(CN2CCCC2)C1=O (stereo not drawn)	2.15 µM
CSc1nnc(NC(=O)c2nc(S(=O)(=O)Cc3ccc(C)cc3)ncc2Cl)s1	3.88 µM
Cc1cccc(C)c1NC(=O)C(c1ccc(-c2ccccc2)cc1)n1c(=O)c(-c2ccco2)nc2ccccc21 (stereo not drawn)	2.64 µM

Structure (SMILES)	IC50
CC(C)(C)NC(=O)C(C1CC1)n1c(=O)c(-c2ccco2)nc2ccccc21 (stereo not drawn)	7.1 µM
CC(=O)Cc1cc(O)c2ccccc2c1OC(=O)c1ccccc1	5.35 µM
COc1ccc(NC(=O)C(c2cccc3ccccc23)n2c(=O)c(-c3ccco3)nc3ccccc32)cc1 (stereo not drawn)	inactive
CCCC(=O)NC(c1cccc([N+](=O)[O-])c1)c1ccc2cccnc2c1O (stereo not drawn)	inactive
O=C(NC1CCCCC1)C(c1ccccc1F)n1c(=O)c(-c2ccco2)nc2ccccc21 (stereo not drawn)	4.15 µM
CC(=O)Oc1ccc(C23c4ccccc4C2(OC(C)=O)c2cc(OC(C)=O)ccc23)cc1 (stereo not drawn)	1.33 µM
O=C(/C(=C/O)N=Nc1ccc(Cl)cc1)c1ccncc1	9.32 µM
O=c1nc(/C=C/c2ccc(Cl)cc2Cl)cc(C(F)(F)F)[nH]1	2.98 µM
CCOC(=O)c1c(C)oc2c1c(CN1CCN(CCO)CC1)c(O)c1ccccc12	3.58 µM
Cc1cc(C)c2nc(NNC(=O)c3ccc(S(=O)(=O)N4CCCC(C)C4)cc3)sc2c1 (stereo not drawn)	1.88 µM
Cc1ccc(S(=O)(=O)N2C[C@@]3(O)Cn4c(=O)ccc(=O)n4C[C@@]3(OC(=O)NCC3CCCCC3)C2)cc1	inactive
O=C(Nc1ccc2c(c1)OCCO2)C(c1ccccc1F)n1c(=O)c(-c2ccco2)nc2ccccc21 (stereo not drawn)	inactive
CCCCCNC(=O)C(c1ccc(OC)cc1)n1c(=O)c(-c2ccco2)nc2ccccc21 (stereo not drawn)	3.4 µM
C#CCN(C[C@@H]1[C@@H](OC(=O)NCc2ccccc2F)[C@@H](OC(=O)NCc2ccccc2F)Cn2c(=O)ccc(=O)n21)S(=O)(=O)c1ccc(C)cc1	6.28 µM
O=C1NC(=O)N(Cc2ccc(F)cc2)C(=O)/C1=C\C=C\c1ccco1	2.29 µM
CCN1C/C(=C/c2ccc(OC)c(O)c2)C(=O)/C(=C/c2ccc(OC)c(O)c2)C1	7.28 µM
O=C(C[n+]1cccc(CNC(=O)c2ccc(OC(F)F)cc2)c1)Nc1cccc(C(F)(F)F)c1	inactive
COC(=O)c1ccc(Cn2cc(/C=C\[N+](=O)[O-])c3ccccc32)o1	inactive
CC(=O)Nc1ccc(S(=O)(=O)N2c3ccc(F)cc3CCC2C)cc1 (stereo not drawn)	inactive
COc1cc(/C=C/C(=O)c2ccc(Cl)s2)cc(OC)c1O	6.42 µM
O=C(/C=C/c1ccc(NC(=O)c2ccccc2-c2ccccc2C(=O)O)cc1)c1ccccc1	8.25 µM
COc1cc(C)c2sc3ccccc3c(=O)c2c1NCCN(C)C	3.94 µM
COc1ccccc1-c1cc(C(=O)NC2CCN(C)CC2)c2ccc(Cl)c(C)c2n1	inactive
CCCCOC(=O)Nc1cc(C(=O)OC)ccc1C(=O)OC	4.5 µM
CSc1nnc(NC(=O)c2nc(S(=O)(=O)Cc3ccccc3F)ncc2Cl)s1	3.66 µM

Structure (SMILES)	IC50
COCCNC(=O)/C(C#N)=C/c1cccc(/C=C(\C#N)C(=O)NCCOC)c1	1.09 µM
CCCCNC(=O)Nc1ccc2c(c1)N(C)C(=O)c1ccccc1S2	3.6 µM
O=c1[nH]c(C2CCN(S(=O)(=O)c3ccc(F)cc3)CC2)nc2c1nnn2Cc1ccc2c(c1)OCCO2	8.33 µM
O=C(NCc1ccccc1)C(c1ccccc1F)n1c(=O)c(-c2ccco2)nc2ccccc21 (stereo not drawn)	4.43 µM
CCCCCNC(=O)C(c1ccc(C#N)cc1)n1c(=O)c(-c2ccco2)nc2ccccc21 (stereo not drawn)	6.63 µM
CCN(CC)CCC(C)OC(c1ccccc1)c1ccccc1 (stereo not drawn)	3.29 µM
O=C(/C=C/c1ccccc1)CC(O)(c1ccccc1)C(F)(F)C(F)F (stereo not drawn)	1.1 µM
O=S(=O)(NC1=NCCCCC1)c1ccc2sc(NS(=O)(=O)c3ccc4ccccc4c3)nc2c1	inactive
CCN(CC)CCOc1ccc(/C(=C(\Cl)c2ccccc2)c2ccccc2)cc1	2.39 µM
Cc1nnc(NC(=O)c2nc(S(=O)(=O)Cc3ccccc3C)ncc2Cl)s1	5.92 µM
O=C(/C=C/Sc1ccccc1)c1ccc(Cl)cc1	4 µM
C#CCN(C[C@@H]1[C@@H](OC(=O)NC2CCCC2)[C@@H](OC(=O)NC2CCCC2)Cn2c(=O)ccc(=O)n21)S(=O)(=O)c1ccc(C)cc1	7.83 µM
Cc1ccc2nc3cc([N+](=O)[O-])cc([N+](=O)[O-])c3cc2c1	1.09 µM
O=C(CF)N(O)c1ccc(C=Cc2ccccc2)cc1	> 39.9 µM (inactive)
CCOc1cc(/C=C2\CCC/C(=C\c3cc(Cl)c(O)c(OCC)c3)C2=O)cc(Cl)c1O	3.55 µM
COc1ccc(C(C(=O)NC(C)(C)C)n2c(=O)c(-c3ccco3)nc3ccccc32)cc1 (stereo not drawn)	3.52 µM
Cc1cccc(C)c1NC(=O)C(c1cccc2ccccc12)n1c(=O)c(-c2ccco2)nc2ccccc21 (stereo not drawn)	4.15 µM
COc1ccccc1/C=C/C(=O)c1ccccc1	9.15 µM
Cc1cccc(C)c1NC(=O)C(c1ccc(C(F)(F)F)cc1)n1c(=O)c(-c2ccco2)nc2ccccc21 (stereo not drawn)	3.73 µM
COc1cc(C(C)=O)ccc1OCc1cn(CC(=O)c2ccc(O)cc2)nn1	5.81 µM
CCN(CC)CCNC(=O)c1ccc(NC(=O)c2cn(-c3ccccc3)nc2-c2cccs2)cc1	inactive
NC(=NCCCCCCN=C(N)/N=C(\N)Nc1ccc(Cl)cc1)/N=C(\N)Nc1ccc(Cl)cc1	6 µM and 4.02 µM
COc1ccc(NC(=O)C(c2ccnc3ccccc23)n2c(=O)c(-c3ccco3)nc3ccccc32)cc1 (stereo not drawn)	7.88 µM

Reference: PubChem BioAssay AID651733 (The Scripps Research Institute Molecular Screening Center, 2012)
